≈ marks a conversion by molar mass, not a printed value.
Columns and labels:
Candida albicans = assay: Antifungal activity (MIC, Minimum Inhibitory Concentration); assay type: cell-based; conditions: for MIC: Candida albicans, Table 5, optimized platform formulation vs unformulated
Source text: The responses were Fine Particle Fraction (FPF) and Anti-fungal Activity (MIC—Minimum Inhibitory Concentration) (Table 2), while the tested pathogen was Candida albicans. The antifungal activity was influenced mainly by the type of salt excipient as well (i.e. parameter A; Rank 1), with sodium sulfate as one of the preferred options. The optimum results for all the parameters are: A6, B1, C3, D3.

[1] = In vitro aerosol performance: Fine Particle Fraction (FPF) of the powder; assay type: physicochemical; conditions: Table 5; optimized platform formulation (sodium sulfate 5% w/w, L-leucine 30% w/w, spray dry) vs unformulated
Source text: The responses were Fine Particle Fraction (FPF) and Anti-fungal Activity (MIC—Minimum Inhibitory Concentration) (Table 2), while the tested pathogen was Candida albicans.
The FPF was influenced mainly by the type of salt excipient (i.e., parameter A; Rank 1), with sodium sulfate as one of the preferred options. The optimum results for all the parameters are: A6, B1, C1, D3.
Letters A, B, C and D represent the experimental parameters and corresponding levels.

| MIC (Candida albicans) | FPF (%) [1] | Structure (SMILES) | improvement in antifungal activity (Candida albicans; formulated using the platform technology vs unformulated) |
| --- | --- | --- | --- |
| < 0.03 µg/mL |  | CCC(C)n1ncn(-c2ccc(N3CCN(c4ccc(OCC5COC(Cn6cncn6)(c6ccc(Cl)cc6Cl)O5)cc4)CC3)cc2)c1=O (stereo not drawn) [B, Itraconazole] |  |
| 0.25 µg/mL (≈ 0.816 µM) | 2.6 ± 0.1% | OC(Cn1cncn1)(Cn1cncn1)c1ccc(F)cc1F [A, Fluconazole] | approximately 4 times |
| < 0.03 µg/mL | 3.5 ± 0.3% | C[C@@H](c1ncncc1F)[C@](O)(Cn1cncn1)c1ccc(F)cc1F [C, Voriconazole] |  |

From patent US20260158005A1, “A SALT-BASED ANTIFUNGAL POWDER PLATFORM FORMULATION FOR AEROSOLIZATION” (AGENCY FOR SCIENCE, TECHNOLOGY AND RESEARCH, priority 2021, published 2026)
